Laboratory results: PubChem BioAssay AID248 (DTP/NCI, 2004)
Inconclusive results and toxic doses are left out. Rule as the data show it: active = T/C of 150% or more; inactive = T/C below 125%.

Tested on: L1210 leukemia ip in BDF1 mice, survival T/C
Assay: NCI In Vivo Anticancer Drug Screen. Data for tumor model L1210 Leukemia (intraperitoneal) in B6D2F1 (BDF1) mice
Details: endpoint: mean survival time, higher = longer survival
How it was run: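 Tumor was transplanted into mice, which were then dosed with test compound or vehicle alone. Survival was recorded for each group, and the treated figure was expressed relative to the control figure.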

[1] = dose: 100.0 mg/kg/injection, schedule: Q04DX002 (ip), vehicle: saline
[2] = dose: 200.0 mg/kg/injection, schedule: Q04DX002 (ip), vehicle: saline
[3] = dose: 100.0 mg/kg/injection, schedule: Q04DX003 (ip), vehicle: saline
[4] = dose: 200.0 mg/kg/injection, schedule: Q04DX003 (ip), vehicle: saline
[5] = dose: 400.0 mg/kg/injection, schedule: Q04DX003 (ip), vehicle: saline
[6] = dose: 100.0 mg/kg/injection, schedule: Q04DX002 (ip), vehicle: Klucel (hydroxypropylcellulose) (HPC)
[7] = dose: 200.0 mg/kg/injection, schedule: Q04DX002 (ip), vehicle: Klucel (hydroxypropylcellulose) (HPC)
[8] = dose: 400.0 mg/kg/injection, schedule: Q04DX002 (ip), vehicle: Klucel (hydroxypropylcellulose) (HPC)
[9] = dose: 100.0 mg/kg/injection, schedule: Q04DX003 (ip), vehicle: Klucel (hydroxypropylcellulose) (HPC)
[10] = dose: 200.0 mg/kg/injection, schedule: Q01DX009 (ip), vehicle: Klucel (hydroxypropylcellulose) (HPC)
[11] = dose: 200.0 mg/kg/injection, schedule: Q04DX003 (ip), vehicle: Klucel (hydroxypropylcellulose) (HPC)
[12] = dose: 400.0 mg/kg/injection, schedule: Q01DX009 (ip), vehicle: Klucel (hydroxypropylcellulose) (HPC)
[13] = dose: 400.0 mg/kg/injection, schedule: Q04DX003 (ip), vehicle: Klucel (hydroxypropylcellulose) (HPC)
[14] = dose: 100.0 mg/kg/injection, schedule: Q01DX001 (ip), vehicle: saline
[15] = dose: 200.0 mg/kg/injection, schedule: Q01DX001 (ip), vehicle: saline
[16] = dose: 400.0 mg/kg/injection, schedule: Q01DX001 (ip), vehicle: saline
[17] = dose: 100.0 mg/kg/injection, schedule: Q04DX003 (ip), vehicle: saline with Tween-80
[18] = dose: 200.0 mg/kg/injection, schedule: Q04DX003 (ip), vehicle: saline with Tween-80
[19] = dose: 400.0 mg/kg/injection, schedule: Q04DX003 (ip), vehicle: saline with Tween-80
[20] = dose: 100.0 mg/kg/injection, schedule: Q01DX001 (ip), vehicle: carboxymethylcellulose (CMC)
[21] = dose: 400.0 mg/kg/injection, schedule: Q01DX001 (ip), vehicle: carboxymethylcellulose (CMC)
[22] = dose: 50.0 mg/kg/injection, schedule: Q01DX001 (ip), vehicle: saline
[23] = dose: 12.5 mg/kg/injection, schedule: Q01DX009 (ip), vehicle: saline
[24] = dose: 25.0 mg/kg/injection, schedule: Q04DX003 (ip), vehicle: saline
[25] = dose: 50.0 mg/kg/injection, schedule: Q04DX003 (ip), vehicle: saline
[26] = dose: 100.0 mg/kg/injection, schedule: Q01DX009 (ip), vehicle: Klucel (hydroxypropylcellulose) (HPC)

Measured: T/C

O=C(OCc1ccccc1)C1CCCN1 (stereo not given)
inactive: dose: 25.0 mg/kg/injection, schedule: Q01DX009 (ip), vehicle: water 104 % of control | dose: 25.0 mg/kg/injection, schedule: Q04DX003 (ip), vehicle: water 109 % of control | dose: 50.0 mg/kg/injection, schedule: Q01DX009 (ip), vehicle: water 97 % of control | dose: 50.0 mg/kg/injection, schedule: Q04DX003 (ip), vehicle: water 96 % of control | dose: 100.0 mg/kg/injection, schedule: Q01DX009 (ip), vehicle: water 97 % of control | [1] 100 % of control | dose: 100.0 mg/kg/injection, schedule: Q04DX003 (ip), vehicle: water 102 % of control | dose: 200.0 mg/kg/injection, schedule: Q01DX009 (ip), vehicle: water 102 % of control | [2] 96 % of control | dose: 200.0 mg/kg/injection, schedule: Q04DX003 (ip), vehicle: water 102 % of control | dose: 400.0 mg/kg/injection, schedule: Q01DX009 (ip), vehicle: water 103 % of control | dose: 400.0 mg/kg/injection, schedule: Q04DX003 (ip), vehicle: water 109 % of control

CC(C)CC(C)OC(=O)CCl (stereo not given)
inactive: [3] 107 % of control | [4] 105 % of control | [5] 88 % of control

Oc1ccccc1/C=N/C(O)C(Cl)(Cl)Cl (stereo not given)
inactive: [6] 96 % of control | [7] 114 % of control | [8] 107 % of control

O=C(c1ccccc1)C1CCCS1(=O)=O (stereo not given)
inactive: [9] 100 % of control | [10] 98 % of control | [11] 96 % of control | [12] 97 % of control | [13] 100 % of control

CC1=CC(C)(C)NC(=S)N1c1cccc([N+](=O)[O-])c1
inactive: dose: 224.0 mg/kg/injection, schedule: Q01DX Z (ip), vehicle: methylcellulose (MC) 88 % of control | dose: 334.0 mg/kg/injection, schedule: Q01DX Z (ip), vehicle: methylcellulose (MC) 89 % of control | dose: 500.0 mg/kg/injection, schedule: Q01DX Z (ip), vehicle: methylcellulose (MC) 94 % of control

CSc1nncc(-c2ccccc2)n1
inactive: dose: 25.0 mg/kg/injection, schedule: Q04DX003 (ip), vehicle: Klucel (hydroxypropylcellulose) (HPC) 97 % of control | dose: 50.0 mg/kg/injection, schedule: Q04DX003 (ip), vehicle: Klucel (hydroxypropylcellulose) (HPC) 96 % of control | dose: 100.0 mg/kg/injection, schedule: Q01DX001 (ip), vehicle: Klucel (hydroxypropylcellulose) (HPC) 100 % of control | [9] 102 % of control

Cc1cc(/C=C/c2ccc(N(CCCl)CCCl)cc2)nc2ccccc12
inactive: [14] 107 % of control | [15] 113 % of control | [16] 103 % of control

N#CC(CN1CCOCC1)[N+](=O)[O-] (stereo not given)
inactive: [17] 98 % of control | [18] 93 % of control | [19] 95 % of control

Oc1cccc2cccnc12
inactive: [20] 100 % of control | [21] 96 % of control

CCCCNC(=O)NC(=O)CS(=O)(=O)c1ccc(C)cc1
inactive: [17] 95 % of control | [18] 95 % of control | [19] 93 % of control

CCCC(O)C[N+](=O)[O-] (stereo not given)
inactive: [3] 103 % of control | [4] 97 % of control | [5] 101 % of control

COC(=O)C(C#N)Cc1ccccc1Cl (stereo not given)
inactive: [17] 90 % of control | [18] 96 % of control | [19] 98 % of control

CCOC(=O)C(C(=O)OCC)c1c[n+]([O-])c2ccccc2c1[N+](=O)[O-]
inactive: [20] 93 % of control | dose: 200.0 mg/kg/injection, schedule: Q01DX001 (ip), vehicle: carboxymethylcellulose (CMC) 98 % of control | [21] 98 % of control

CCCCS(=O)/C=C\S(=O)CCCC (stereo not given)
inactive: [1] 117 % of control | [2] 106 % of control

CCOC(=O)C(C(=O)OCC)c1ccc(Cl)cc1
inactive: [22] 101 % of control | [14] 101 % of control | [15] 101 % of control | [16] 106 % of control

O=C1c2ccccc2C(=O)N1Nc1ccccc1
inactive: dose: 5.0 mg/kg/injection, schedule: Q01DX001 (ip), vehicle: carboxymethylcellulose (CMC) 96 % of control | dose: 10.0 mg/kg/injection, schedule: Q01DX001 (ip), vehicle: carboxymethylcellulose (CMC) 113 % of control | dose: 20.0 mg/kg/injection, schedule: Q01DX001 (ip), vehicle: carboxymethylcellulose (CMC) 105 % of control | dose: 40.0 mg/kg/injection, schedule: Q01DX001 (ip), vehicle: carboxymethylcellulose (CMC) 111 % of control | dose: 80.0 mg/kg/injection, schedule: Q01DX001 (ip), vehicle: carboxymethylcellulose (CMC) 94 % of control | [6] 110 % of control | [7] 97 % of control | [8] 103 % of control

Clc1ccc([O][Sn]([c]2ccccc2)([c]2ccccc2)[c]2ccccc2)c(-c2ccccc2)c1
inactive: dose: 5.0 mg/kg/injection, schedule: Q01DX001 (ip), vehicle: saline 90 % of control | dose: 10.0 mg/kg/injection, schedule: Q01DX001 (ip), vehicle: saline 96 % of control

Cc1nc2ncnc(NCc3ccc(Cl)cc3Cl)c2[nH]1
inactive: [14] 97 % of control | [15] 89 % of control | [16] 108 % of control

CC1OC(=O)C(C2OC2C)=CC1O (stereo not given)
inactive: [23] 97 % of control | dose: 12.5 mg/kg/injection, schedule: Q04DX003 (ip), vehicle: saline 101 % of control | dose: 25.0 mg/kg/injection, schedule: Q01DX009 (ip), vehicle: saline 108 % of control | [24] 108 % of control | [22] 114 % of control | [25] 92 % of control

CC(C)c1ccc(/C=C2\CSC/C(=C/c3ccc(C(C)C)cc3)C2=O)cc1
inactive: [15] 95 % of control | dose: 200.0 mg/kg/injection, schedule: Q01DX009 (ip), vehicle: saline 91 % of control

CCCCCCCCCCCCSC(SCCCCCCCCCCCC)c1ccc(OCC(=O)O)cc1
inactive: [24] 105 % of control | [25] 96 % of control | [26] 97 % of control | [3] 100 % of control | [10] 94 % of control | [4] 102 % of control | [12] 97 % of control | [5] 96 % of control

C1CCC2C(C1)CCC1C2OCN2CCCCC12 (stereo not given)
inactive: dose: 100.0 mg/kg/injection, schedule: Q04DX002 (ip), vehicle: saline with Tween-80 104 % of control | [3] 98 % of control | dose: 200.0 mg/kg/injection, schedule: Q04DX002 (ip), vehicle: saline with Tween-80 101 % of control | [4] 98 % of control | dose: 400.0 mg/kg/injection, schedule: Q04DX002 (ip), vehicle: saline with Tween-80 96 % of control | [5] 98 % of control

NC(N)=N/N=C/NN/C=N/N=C(N)N
inactive: dose: 15.0 mg/kg/injection, schedule: Q01DX Z (ip), vehicle: saline 93 % of control | dose: 30.0 mg/kg/injection, schedule: Q01DX Z (ip), vehicle: saline 104 % of control | dose: 60.0 mg/kg/injection, schedule: Q01DX Z (ip), vehicle: saline 115 % of control | dose: 120.0 mg/kg/injection, schedule: Q01DX Z (oral), vehicle: saline 95 % of control

CSc1ccc(NC(=O)Oc2ccc(NC(C)=O)cc2)cc1
inactive: [26] 98 % of control | [10] 106 % of control | [12] 98 % of control

O=C1NCC2CCc3c(ccc4ccccc34)N12 (stereo not given)
inactive: dose: 100.0 mg/kg/injection, schedule: Q01DX001 (ip), vehicle: other 100 % of control | dose: 200.0 mg/kg/injection, schedule: Q01DX001 (ip), vehicle: other 94 % of control | dose: 400.0 mg/kg/injection, schedule: Q01DX001 (ip), vehicle: other 93 % of control

CC1CC(O)C([N+](=O)[O-])C(O)C1 (stereo not given)
inactive: [23] 102 % of control

CC(C)C1=CC(=O)OC1C(O)C(C)C1CCC2C3CC=C4CC(O)CCC4(C)C3CCC12C (stereo not given)
inactive: [9] 102 % of control | [11] 96 % of control | [13] 94 % of control
